Reference: patent US4732916A, “Novel guanidinomethylbenzoic acid derivatives” (Kabushiki Kaisha Med-Creat, priority 1985, dated 1988)

Key:
Type in all cases: in vivo
[1] = system: indomethacin induced ulcer; experiment: Test Method 3: Effect on Indomethacin Induced Ulcer; conditions: Rattus norvegicus; SD male rats, oral, 15 minutes before s.c. indomethacin (30 mg/kg); stomachs removed after 5 hours
Procedure: The method of Okabe et al (Jap. J. Pharmacol., 29, 670 (1979)) was followed.
SD male rats each weighing from 180 to 200 g (8 weeks of age and 6 to 8 in one group) were fasted for 24 hours, followed by oral administration of the test compounds which had been suspended in 1% CMC aqueous solution, and 15 minutes afterwards, by subcutaneous administration of indomethacin (30 mg/kg of weight) which had been dissolved in 3% sodium bicarbonate aqueous solution. After lapse of 5 hours, the animals were killed under etherization to take out the stomachs. Each of the stomachs was injected with 12 ml of 1% formalin aqueous solution containing 0.1% pontamine sky blue and then immersed in 1% formalin aqueous solution for 15 minutes. The ulcer factor and ulcer inhibition rate were determined in a manner similar to Test Method 1. The ED50 values were obtained from the dosesulcer inhibition rates curve.

ethanol induced ulcer = experiment: Test Method 2: Effect on Ethanol Induced Ulcer; conditions: Rattus norvegicus; SD male rats, oral, 30 minutes before oral ethanol (99.5%, 1 ml); stomachs removed one hour later
Procedure: 1. Test Procedures The method of Robert (Gastroenterology, 77, 433 (1979)) was followed. SD male rats each weighing from 180 to 200 g (8 weeks of age and 6 to 8 rats in one group) were fasted for 24 hours, followed by oral administration of the test compounds which had been suspended in 1% CMC aqueous solution. After lapse of 30 minutes, 1 ml of ethanol (99.5%) was orally administered. One hour later, the animals were killed under etherization to remove the stomachs. Each of the stomachs was injected with 12 ml of 1% formalin aqueous solution and then immersed in 1% formalin aqueous solution for 15 minutes. The ulcer factor and ulcer inhibition rate were determined in a manner similar to Test Method 1. The ED50 values were obtained from the doses-ulcer inhibition rates curve.

ddY male mice = experiment: Test Method 4: Acute Toxicity-Minimum Lethal Dose (MLD); conditions: oral, observation over 7 days
From the text: ddY Male mice each weighing from 20 to 22 g (4 weeks of age and 5 mice in one group) were fasted overnight, followed by oral administration of the test compounds which had been suspended in 1% CMC aqueous solution. Observation was made as to the death of the animals over 7 days to thereby determine the minimum lethal doses (MLD).

stress induced ulcer = experiment: Test Method 1: Effect on Stress Induced Ulcer; conditions: Rattus norvegicus; SD male rats, oral, 15 minutes before restraint and water immersion (24° C., 18 hours); from doses-ulcer inhibition rates curve
Procedure: 1. Test Procedures The method of Takagi et al (Jap. J. Pharmacol., 18, 9 (1968)) was followed. SD male rats each weighing from 180 to 200 g (8 weeks of age and 6 to 8 rats in one group) were fasted for 24 hours, followed by oral administration of the above test compounds which had been suspended in 1% CMC aqueous solution. 15 minutes later, the animals were put into a stress cage which was then immersed in a water tank at 24° C. at the depth of the […] of the animals. After being immersed for 18 hours, the animals were killed under etherization to excise the stomachs. Each of the stomachs was injected with 12 ml of 1% formalin aqueous solution and then immersed in 1% formalin aqueous solution for 15 minutes. The stomach was incised along its upper curvature and measured by an anatomic microscopy for the major axis (mm) of each ulcer that had developed on the gastric mucous membrane. The total major axis (mm) was taken as the ulcer factor. The ulcer inhibition rate was obtained from the following equation. The ED50 values were obtained from the doses-ulcer inhibition rates curve. [formula] where l is the ulcer factor of a group without the test compounds administered, and m is the ulcer factor of a group having such compounds administered.

SMILES | ED50 [1] | ED50 (ethanol induced ulcer) | MLD, acute toxicity test (minimum lethal dose) (ddY male mice) | ED50 (stress induced ulcer)
N=C(N)NCc1ccc(C(=O)Nc2ccccc2)cc1 [Compound A, N-phenyl-4-guanidinomethylbenzamide] | 58 mg/kg | 35 mg/kg | > 3000 mg/kg | 34 mg/kg
Cl.N=C(N)NC[C@H]1CC[C@H](C(=O)Nc2ccccc2)CC1 [Compound B, N-(phenyl)-trans-4-guanidinomethylcyclohexanecarboxamide hydrochloride] | 73 mg/kg | 220 mg/kg | < 1000 mg/kg | 143 mg/kg
